Measurements taken from patent US10738074B2, “Cyclic di-nucleotide compounds as STING agonists” (Merck Sharp & Dohme Corp., priority 2015, dated 2020).

Tests used:
full-length HAQ STING = full-length HAQ STING (Homo sapiens (Human), UniProt Q86WV6, G230A/H232R/R293Q/R71H); test: 3H-cGAMP filtration binding assay (HAQ STING); details: competition with tritiated cGAMP, HAQ STING membrane
Description: (§1) The ability of compounds to bind STING is quantified by the ability to compete with tritiated cGAMP ligand for human STING receptor membrane using a radioactive filter-binding assay. The binding assay employs STING receptor obtained from Hi-Five cell membranes overexpressing full-length HAQ STING prepared in-house and tritiated cGAMP ligand also purified in-house.
as §1, with “their” for “the”, “Trichoplusia ni” for “Hi-Five”, “membranes (Tni; Expression Systems, cat #94-002F, www.exrpressionsystems.com)” for “membranes”
The basic HAQ STING filtration assay protocol is as follows:
Compound and membrane then preincubated for 60 min at RT to allow compound binding to equilibrate. Following equilibration, 8 nM of [^3H] c-GAMP ligand was prepared by diluting into assay buffer, and 50 uL of this working stock was then manually added to each well of the assay plate. […] The filter plates were then dried at 55° C. for 30 min using a pressurized VWR oven before 30 uL of Ultima GoldF scintillate was added to each well. Tritium levels for each reaction well were then measured using a PerkinElmer TopCount plate reader.
(§2) After normalization to controls, the percent activity for each compound concentration was calculated by measuring the amount of remaining radioactivity. The plot of percent activity versus the log of compound concentration was fit with a 4-parameter dose response equation to calculate EC50 values.

full-length WT STING = full-length WT STING (Homo sapiens (Human), UniProt Q86WV6, H232R); test: 3H-cGAMP filtration binding assay (WT STING); details: competition with tritiated cGAMP, WT STING membrane
Description: as §1, with “their” for “the”, “Trichoplusia ni” for “Hi-Five”, “membranes (Tni; Expression Systems, cat #94-002F, www.expressionsystems.com)” for “membranes”, “WT” for “HAQ”
The basic WT STING filtration assay protocol is as follows:
The filter plates were then dried at 55° C. for 30 min using a pressurized VWR oven before 30 uL of Ultima GoldF scintillate was added to each well. Tritium levels for each reaction well were then measured using a PerkinElmer TopCount plate reader.
as §2

THP1 cells = test: IFN-β secretion in THP1 cell culture (5 h); type: cell-based, human; details: IFN-β secretion, THP1 cells, 5 h, 30 μM
Experimental: The ability of compounds to stimulate the secretion of interferon-beta from THP1 cells was measured using a human IFN-β AlphaLISA kit (Perkin Elmer, Cat. No. AL265F). The basic protocol is as follows:
A Labcyte Echo 550 acoustic dispenser was used to transfer 120 nL of compound dissolved in DMSO into the wells of an empty, sterile 384-well microplate, (Corning, Cat. No. 3712). THP1 cells (American Type Culture Collection, Cat. No. TIB202) previously frozen in Recovery Medium (Life Technologies, Cat. No. 12648-010) were thawed and immediately diluted 10-fold into 37° C. assay medium (RPMI 1640+L-Glutamine & phenol red, Life Technologies, Cat. No. 11875-085; 0.5% heat inactivated fetal bovine serum, Sigma Aldrich, Cat. No. F4135; 1 mM Sodium Pyruvate, Life Technologies, Cat. No. 11360-070; lx non-essential amino acids; Life Technologies, Cat. No. 11140-050). The cell viability and count was ascertained using a Beckman Coulter V-Cell XR cell counter. The cells suspension was centrifuged at 200×g for 5 min at RT. Cells were resuspended to a density of 0.8×10^6/mL in 37° C. assay medium. Subsequent liquid transfers were performed using either a Matrix electronic multichannel pipette or an Agilent Bravo Automated Liquid Handling Platform.
The assay was started by dispensing 40 μL of the previously prepared cell suspension into the wells of the plate containing compounds. After 5 h incubation at 37° C., 5% CO2 in a humidified atmosphere, the plate of cells and compounds was centrifuged at 200×g for 5 min at RT. From each well, 5 μL of supernatant was transferred into corresponding wells of a white 384-well plate (Perkin Elmer, Cat. No. 6005620). To these supernatant-containing wells was added 10 μL of 5× Anti-Analyte Acceptor beads (50 μg/mL of AlphaLISA HiBlock Buffer) and incubated for 30 min at RT while shaking on an orbital plate shaker. To each well was added 10 μL of 5× Biotinylated Antibody Anti-analyte (5 nM in AlphaLISA HiBlock Buffer) and incubated on an orbital plate shaker for 60 min at RT or overnight at 4° C. To each well was added 25 μL of 2× SA-Donor beads (80 μg/mL in AlphaLISA HiBlock Buffer) and incubated for 30-45 min at RT in the dark while shaking on an orbital plate shaker. The plate was then read on a Perkin Elmer Envision (λex=680 nm, λem=[…]). The percent effect of the AlphaLISA signal at each compound concentration was calculated based on 30 uM cGAMP positive controls and 0.3% DMSO negative controls. The plot of percent effect versus the log of compound concentration was fit with a 4-parameter concentration response equation to calculate EC50 values. The test compounds were tested at concentrations 30000, 10000, 3333, 1111, 370.4, 123.4, 41.2, 13.7, 4.6, and 1.5 nM with 0.3% residual DMSO.
Compounds of the disclosure were evaluated for IFN-β secretion in THP1 cell culture as described above. The following table tabulates the biological data for these compounds as percent activation relative to 2′3′-cGAMP at the 30 μM concentration.

Chain of full-length HAQ STING (Q86WV6 other isoform, or with tags, fused parts or gaps, stated change not applied): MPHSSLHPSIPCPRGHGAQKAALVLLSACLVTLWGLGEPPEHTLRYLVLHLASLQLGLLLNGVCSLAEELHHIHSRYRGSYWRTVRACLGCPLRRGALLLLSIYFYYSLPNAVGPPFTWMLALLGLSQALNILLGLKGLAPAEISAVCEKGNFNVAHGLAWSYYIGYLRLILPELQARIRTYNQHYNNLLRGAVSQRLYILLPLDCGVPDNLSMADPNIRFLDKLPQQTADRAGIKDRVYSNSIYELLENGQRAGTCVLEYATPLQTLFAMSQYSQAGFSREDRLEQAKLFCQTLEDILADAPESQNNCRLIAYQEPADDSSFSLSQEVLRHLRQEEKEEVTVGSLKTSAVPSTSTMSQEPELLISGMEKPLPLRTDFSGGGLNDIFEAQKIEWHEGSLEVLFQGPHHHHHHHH
Chain of full-length WT STING (Q86WV6 other isoform, or with tags, fused parts or gaps H232R (already in the parent)): as the sequence (Q86WV6 other isoform, or with tags, fused parts or gaps, stated change not applied) above, with H71R, A230G, Q293R counted along it

EC50 (full-length HAQ STING): < 1 nM | EC50 (full-length WT STING): < 1 nM
SMILES: Nc1nc2c(ncn2[C@H]2O[C@@H]3COP(=O)(O)O[C@@H]4[C@H](N)[C@@H](COP(=O)(O)O[C@@H]2[C@@H]3O)O[C@H]4n2cnc3c(N)ncnc32)c(=O)[nH]1 [Example 34]
% Effect at 30 μM relative to 2′3′-cGAMP (THP1 cells): 132%
